Values after ≈ are worked out from the molar mass of the structure shown. Read-outs that look alike come from different tables or passages of the source.
Legend:
[1] = tested on: CNS (ID-3941); test: In vitro antibacterial activity, agar dilution MIC; format: cell-based; settings: 18 h
Experimental: (§1) The in vitro antibacterial activity of 31F508α1 and α2 is determined against a spectrum of gram-positive and gram-negative bacteria by a standard agar dilution method. Mueller-Hinton agar with and without 5% sheep blood and two-fold decreasing concentrations of either 31F508α1 or α2 are poured into petri dishes. The agar surfaces are inoculated with 1 to 5×10^4 colony forming units of bacteria by means of the Steers replicating device. The lowest concentration of antibiotic that inhibits growth of a bacterial strain after 18 hours incubation is recorded as the minimal inhibitory concentration for that strain. The results are given in Table V with sheeps blood added to the agar.

[2] = tested on: E. faecium (ID-3301); test: In vitro antibacterial activity, agar dilution MIC; format: cell-based; settings: Enterococcus faecium, 18 h, read-out: Minimum Inhibitory Concentration
Experimental: as §1

[3] = tested on: E. Avium (ID-3953); test: In vitro antibacterial activity, agar dilution MIC; format: cell-based; settings: Enterococcus avium, 18 h, read-out: Minimum Inhibitory Concentration
Experimental: as §1

[4] = tested on: E. faecalis (ID-2131); test: In vitro antibacterial activity, agar dilution MIC; format: cell-based; settings: Enterococcus faecalis, 18 h, read-out: Minimum Inhibitory Concentration
Experimental: as §1

[5] = tested on: Staphylococcus haemolyticus (ID-4061); test: In vitro antibacterial activity, agar dilution MIC; format: cell-based; settings: 18 h, read-out: Minimum Inhibitory Concentration
Experimental: as §1

[6] = tested on: Staphylococcus aureus (ID-3105); test: In vitro antibacterial activity, agar dilution MIC; format: cell-based; settings: 18 h, read-out: Minimum Inhibitory Concentration
Experimental: as §1

[7] = tested on: P. aeruginosa (ATCC 27853); test: In vitro antibacterial activity, agar dilution MIC; format: cell-based; settings: 18 hours; for MIC: Pseudomonas aeruginosa, ATCC27853, without sheep blood, read-out: Minimum Inhibitory Concentration
Experimental: as §1

[8] = tested on: Staphylococcus aureus (ID-4379); test: In vitro antibacterial activity, agar dilution MIC; format: cell-based; settings: 18 h, read-out: Minimum Inhibitory Concentration
Experimental: as §1

[9] = tested on: Staphylococcus aureus (ATCC 29213); test: In vitro antibacterial activity, agar dilution MIC; format: cell-based; settings: ATCC29213, 18 h, read-out: Minimum Inhibitory Concentration
Experimental: as §1

[10] = tested on: E. faecalis (ID-4168); test: In vitro antibacterial activity, agar dilution MIC; format: cell-based; settings: Enterococcus faecalis, 18 h, read-out: Minimum Inhibitory Concentration
Experimental: as §1

[11] = tested on: Staphylococcus aureus (ID-2371); test: In vitro antibacterial activity, agar dilution MIC; format: cell-based; settings: 18 h, read-out: Minimum Inhibitory Concentration
Experimental: as §1

[12] = tested on: E. faecalis (ATCC 29212); test: In vitro antibacterial activity, agar dilution MIC; format: cell-based; settings: Enterococcus faecalis, ATCC29212, 18 h, read-out: Minimum Inhibitory Concentration
Experimental: as §1

[13] = tested on: Staphylococcus aureus (MEMC-89-4); test: In vitro antibacterial activity, agar dilution MIC; format: cell-based; settings: 18 h, read-out: Minimum Inhibitory Concentration
Experimental: as §1

[14] = tested on: B. cereus (Bacto); test: In vitro antibacterial activity, agar dilution MIC; format: cell-based; settings: Bacillus cereus, 18 h, read-out: Minimum Inhibitory Concentration
Experimental: as §1

[15] = tested on: E. faecalis (12201); test: In vitro antibacterial activity, agar dilution MIC; format: cell-based; settings: Enterococcus faecalis, 18 h, read-out: Minimum Inhibitory Concentration
Experimental: as §1

[16] = tested on: CNS (ID-3120); test: In vitro antibacterial activity, agar dilution MIC; format: cell-based; settings: 18 h
Experimental: as §1

[17] = tested on: S. Pyogenes (ID-3187); test: In vitro antibacterial activity, agar dilution MIC; format: cell-based; settings: Streptococcus pyogenes, 18 h, read-out: Minimum Inhibitory Concentration
Experimental: as §1

[18] = tested on: E. coli (ATCC 25922); test: In vitro antibacterial activity, agar dilution MIC; format: cell-based; settings: 18 hours; for MIC: Escherichia coli, ATCC25922, without sheep blood, read-out: Minimum Inhibitory Concentration
Experimental: as §1

[19] = tested on: CNS (4615); test: In vitro antibacterial activity, agar dilution MIC; format: cell-based; settings: 18 h
Experimental: as §1

[20] = tested on: S. agalactiae (ID-4079); test: In vitro antibacterial activity, agar dilution MIC; format: cell-based; settings: Streptococcus agalactiae
Experimental: as §1

[21] = tested on: M. morganii (VGH 84-11); test: In vitro antibacterial activity, agar dilution MIC; format: cell-based; settings: Morganella morganii, 18 h, read-out: Minimum Inhibitory Concentration
Experimental: as §1

[22] = tested on: Staphylococcus aureus (ID-2727); test: In vitro antibacterial activity, agar dilution MIC; format: cell-based; settings: 18 h, read-out: Minimum Inhibitory Concentration
Experimental: as §1

[23] = Stability (conversion in neutral or basic solution; decomposition on drying); format: physicochemical
Experimental: The crude product is then separated into the α1, α2, β1 and β2 components and further purified by high performance liquid chromatography on a reverse-phase column equilibrated with 0.1% trifluoroacetic acid in water followed by slution with an acetonitrile gradient to 10%. Active fractions are pooled and freeze dried. Freeze dried fractions are dissolved in 0.01M hydrochloric acid, applied to a reverse phase column and eluted with an acetonitrile gradient to 10% resolves the two components α1 and α2. […] Beta is the quinone form of α1 or α2 having lost hydrogens from the oxygens connected to carbon10 and 13.
The freeze dried material is suspended in methanol and the insolubles removed by filtration. The soluble material is concentrated to dryness and the concentrate dissolved in 1% trifluoroacetic acid in water. Insolubles are removed by centrifugation. The soluble material is loaded onto a preparative reverse phase C18 column equilibrated with 0.1% trifluoroacetic acid in water. The column is eluted with an acetonitrile gradient to 10%. Active fractions containing the alpha component are pooled and freeze dried. Active fractions containing the beta component are adjusted to pH 8 with solid ammonium bicarbonate and extracted with methylene chloride. The beta component is stored in methylene chloride as drying leads to rapid decomposition. […]

[24] = read-out: Minimum Inhibitory Concentration, CNS (ID-3941), without sheep blood
[25] = Staphylococcus aureus (ATCC 29213-), without sheep blood
[26] = read-out: Minimum Inhibitory Concentration, CNS (ID-3120), without sheep blood
[27] = read-out: Minimum Inhibitory Concentration, CNS (4615), without sheep blood
[28] = 18 h, read-out: Minimum Inhibitory Concentration, S. acralactiae (ID-4079), without sheep blood

COc1c(C)c(O)c2c(c1O)C1COC3C4CC5C(C(C2N2CCOC52)N13)N4C (stereo not drawn) [31F508α2]
MIC [1, 24]: 0.002 µg/mL (≈ 0.00498 µM)
MIC ([2]; without sheep blood): 0.12 µg/mL (≈ 0.299 µM)
MIC ([3]; without sheep blood): 0.03 µg/mL (≈ 0.0747 µM)
MIC ([4]; without sheep blood): 0.25 µg/mL (≈ 0.623 µM)
MIC ([5]; without sheep blood): 0.002 µg/mL (≈ 0.00498 µM)
MIC ([6]; without sheep blood): 0.004 µg/mL (≈ 0.00996 µM)
MIC [7]: 2 µg/mL (≈ 4.98 µM)
MIC ([8]; without sheep blood): 0.004 µg/mL (≈ 0.00996 µM)
MIC [9, 25]: 0.008 µg/mL (≈ 0.0199 µM)
MIC ([10]; without sheep blood): 0.12 µg/mL (≈ 0.299 µM)
MIC ([11]; without sheep blood): 0.004 µg/mL (≈ 0.00996 µM)
MIC ([12]; without sheep blood): 0.06 µg/mL (≈ 0.149 µM)
MIC ([13]; without sheep blood): 0.004 µg/mL (≈ 0.00996 µM)
MIC ([14]; without sheep blood): 0.25 µg/mL (≈ 0.623 µM)
MIC ([15]; without sheep blood): 0.015 µg/mL (≈ 0.0374 µM)
MIC [16, 26]: 0.002 µg/mL (≈ 0.00498 µM)
MIC ([17]; without sheep blood): 0.002 µg/mL (≈ 0.00498 µM)
MIC [18]: 0.5 µg/mL (≈ 1.25 µM)
MIC [19, 27]: 0.002 µg/mL (≈ 0.00498 µM)
MIC [20, 28]: 0.004 µg/mL (≈ 0.00996 µM)
MIC ([21]; without sheep blood): 0.5 µg/mL (≈ 1.25 µM)
MIC ([22]; without sheep blood): 0.002 µg/mL (≈ 0.00498 µM)
Conversion to the beta (quinone) form ([23]; listed as α2): converts to the beta form

COc1c(C)c(O)c2c(c1O)C1COC3C4CC5C(N4)C(C2N2CCOC52)N13 (stereo not drawn) [31F508α1]
MIC ([1]; read-out: Minimum Inhibitory Concentration, CNS (ID-3941), with 5% sheep blood): 0.06 µg/mL (≈ 0.155 µM)
MIC [1, 24]: 0.03 µg/mL (≈ 0.0774 µM)
MIC ([2]; with 5% sheep blood): 0.12 µg/mL (≈ 0.31 µM)
MIC ([2]; without sheep blood): 0.06 µg/mL (≈ 0.155 µM)
MIC ([3]; with 5% sheep blood): 0.25 µg/mL (≈ 0.645 µM)
MIC ([3]; without sheep blood): 0.06 µg/mL (≈ 0.155 µM)
MIC ([4]; with 5% sheep blood): 0.25 µg/mL (≈ 0.645 µM)
MIC ([4]; without sheep blood): 0.12 µg/mL (≈ 0.31 µM)
MIC ([5]; with 5% sheep blood): 0.015 µg/mL (≈ 0.0387 µM)
MIC ([5]; without sheep blood): 0.008 µg/mL (≈ 0.0206 µM)
MIC ([6]; with 5% sheep blood): 0.06 µg/mL (≈ 0.155 µM)
MIC ([6]; without sheep blood): 0.03 µg/mL (≈ 0.0774 µM)
MIC [7]: 2 µg/mL (≈ 5.16 µM)
Minimum Inhibitory Concentration ([7]; with 5% sheep blood): 2.000 µg/mL
MIC ([8]; with 5% sheep blood): 0.12 µg/mL (≈ 0.31 µM)
MIC ([8]; without sheep blood): 0.03 µg/mL (≈ 0.0774 µM)
MIC ([9]; Staphylococcus aureus (ATCC 29213), with 5% sheep blood): 0.12 µg/mL (≈ 0.31 µM)
MIC [9, 25]: 0.06 µg/mL (≈ 0.155 µM)
MIC ([10]; with 5% sheep blood): 0.12 µg/mL (≈ 0.31 µM)
MIC ([10]; without sheep blood): 0.06 µg/mL (≈ 0.155 µM)
MIC ([11]; with 5% sheep blood): 0.06 µg/mL (≈ 0.155 µM)
MIC ([11]; without sheep blood): 0.03 µg/mL (≈ 0.0774 µM)
MIC ([12]; with 5% sheep blood): 0.12 µg/mL (≈ 0.31 µM)
MIC ([12]; without sheep blood): 0.06 µg/mL (≈ 0.155 µM)
MIC ([13]; with 5% sheep blood): 0.06 µg/mL (≈ 0.155 µM)
MIC ([13]; without sheep blood): 0.03 µg/mL (≈ 0.0774 µM)
MIC ([14]; with 5% sheep blood): 1 µg/mL (≈ 2.58 µM)
MIC ([14]; without sheep blood): 0.5 µg/mL (≈ 1.29 µM)
MIC ([15]; with 5% sheep blood): 0.06 µg/mL (≈ 0.155 µM)
MIC ([15]; without sheep blood): 0.03 µg/mL (≈ 0.0774 µM)
MIC ([16]; read-out: Minimum Inhibitory Concentration, CNS (ID-3120), with 5% sheep blood): 0.03 µg/mL (≈ 0.0774 µM)
MIC [16, 26]: 0.015 µg/mL (≈ 0.0387 µM)
MIC ([17]; with 5% sheep blood): 0.004 µg/mL (≈ 0.0103 µM)
MIC ([17]; without sheep blood): 0.002 µg/mL (≈ 0.00516 µM)
MIC [18]: 1 µg/mL (≈ 2.58 µM)
Minimum Inhibitory Concentration ([18]; with 5% sheep blood): 1.000 µg/mL
MIC ([19]; read-out: Minimum Inhibitory Concentration, CNS (4615), with 5% sheep blood): 0.03 µg/mL (≈ 0.0774 µM)
MIC [19, 27]: 0.015 µg/mL (≈ 0.0387 µM)
MIC [20, 28]: 0.004 µg/mL (≈ 0.0103 µM)
MIC ([20]; S. agalactiae (ID-4079), with 5% sheep blood, 18 hours, read-out: Minimum Inhibitory Concentration): 0.015 µg/mL (≈ 0.0387 µM)
MIC ([21]; with 5% sheep blood): 2 µg/mL (≈ 5.16 µM)
MIC ([21]; without sheep blood): 1 µg/mL (≈ 2.58 µM)
MIC ([22]; with 5% sheep blood): 0.015 µg/mL (≈ 0.0387 µM)
MIC ([22]; without sheep blood): 0.008 µg/mL (≈ 0.0206 µM)
Conversion to the beta (quinone) form ([23]; listed as α1): converts to the beta form

From patent US5484717A, “Antibiotic 31F508α1, 31F508α2, 31F508β1, 31F508β2” (American Cyanamid Company, priority 1995, dated 1996)
